Results from US20250026748A1, “N-(5-SUBSTITUTED-[(1,3,4-THIADIAZOLYL) OR (THIAZOLYL)])(SUBSTITUTED)CARBOXAMIDE COMPOUNDS AND USE THEREOF FOR INHIBITING HUMAN POLYMERASE THETA” (Repare Therapeutics Inc., priority 2021, published 2025).
Read-outs that look alike come from different tables or passages of the source.

Legend:
[1] = molecular target: Polθ ATPase enzyme (1-894) (Homo sapiens (Human), UniProt O75417); experiment: Polθ ATPase enzymatic assay (3 nM enzyme concentration), ADP-Glo; assay type: biochemical
Experimental: Polθ ATPase enzyme (1-894) at 3 nM is incubated with a 10-point concentration response of inhibitors for 15 min at rt in the following buffer: 50 mM Tris Cl pH 7.5, 10% glycerol, 5 mM DTT, 10 mM MgCl2, 0.1 mg/ml BSA. Following pre-incubation with inhibitors, DNA (Fork C) at 20 nM and ATP at 100 μM are added to start the reaction. Enzymatic reaction proceeds at rt for 60 min. ATP consumption is measured using the ADP-Glo assay from Promega. Luminescence is read on the Envision and IC50 are determined using the variable slope 4-parameters equation.
DNA (Fork C) is made by annealing 3 different oligos containing the following sequence of nucleotides:
Oligos are annealed by heating at 95° C. for 5 min in the following buffer (10 mM Tris-HCl pH7.5, 50 mM NaCl, 1 mM EDTA) and cooled to rt. […]

[2] = molecular target: PolQ ATPase enzyme (1-894) (Homo sapiens (Human), UniProt O75417); experiment: Polθ ATPase enzymatic assay (0.5 nM enzyme concentration), ADP-Glo; assay type: biochemical; details: average IC50; 0.5 nM PolQ ATPase enzyme (1-894)
Outline: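 Enzyme (0.5 nM) pre-incubated 15 min at rt with 10-point inhibitor series in 50 mM Tris pH 7.5, 10% glycerol, 5 mM DTT, 10 mM MgCl2, 0.1 mg/ml BSA; reaction started with 20 nM fork DNA and 100 μM ATP, run 180 min at rt. ADP-Glo luminescence; IC50 from 4-parameter variable-slope fit.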

[3] = Liver microsomal stability assay; assay type: in vitro ADME; details: pH 7.4; human liver microsomes 0.5 mg/mL, 1 μM compound, NADPH 1 mM, 37 °C
Experimental: Liver microsomes were thawed on ice prior to use. The incubation mixtures were prepared in 96-well plates and contained test compound or control (1 μM), liver microsomes (0.5 mg of microsomal protein/mL), MgCl2 (5 mM), phosphate buffer (100 mM, pH 7.4), 0.01% DMSO and 1% acetonitrile. A T=0 aliquot was withdrawn after 10 min pre-incubation at 37° C. on a shaker. Reactions were initiated by the addition of NADPH (final concentration of 1 mM) and the plate was kept on a shaker at 37° C., further samples were withdrawn at 5, 15, 30, and 60 minutes. At each timepoint, the reactions were immediately terminated by adding of ice-cold acetonitrile containing internal standard to the withdrawn sample. The extracted samples were centrifuged for 10 minutes at 3200 rpm to pellet the precipitated microsomal protein, and the supernatant was combined 1:1 with water and analyzed by LC-MS/MS. Using the T=0 peak area ratio as 100%, the percentage of parent compound remaining was calculated. For each compound, the In percentage remaining versus incubation time was plotted and the slope of this linear regression (−k) was converted to an in vitro T1/2 value and CLint using the equations below.

[4] = molecular target: PXR nuclear receptor (Homo sapiens (Human), UniProt O75469); experiment: PXR method: luciferase reporter gene activation in transfected tumor cells; assay type: cell-based; details: test compound 0.03-10 μM; for fold induction at 24 h: compared with vehicle-treated cells, read-out: PXR activation (Max fold induction); for PXR activation (% Max activity): percentage of the response given by Rifampicin at 10 μM, 24 h
Experimental: An expression vector harboring a full-length PXR nuclear receptor plus the appropriate enhancers and promoters linked to the luciferase reporter gene were integrated into the tumor cells. Tumor cells transfected with the species-specific nuclear receptor and the corresponding response elements were seeded in a 96-well plate. Twenty-four hours after seeding, the cells were treated with six distinct concentrations (0.03-10 μM) of the test compound. The cells were then returned to the incubator for an additional 24 h. After this incubation period, the number of viable cells/well were determined using Promega's Cell Titer Fluor cytotoxicity assay. At the end of the assay, Promega's ONE-Glo was added to assess the receptor activation by monitoring reporter gene activity, and by comparing the results to vehicle-treated cells. Activation data were normalized to the number of viable cells/well. Results are expressed as a percentage of the response given by Rifampicin, the positive control, at a 10 μM dose.

[5] = molecular target: T1, CYP3A4 (Homo sapiens (Human), UniProt P08684); experiment: Reversible CYP inhibition in human liver microsomes (midazolam probe); assay type: in vitro ADME; details: human liver microsomes 0.1 mg/mL, 2.5 μM midazolam, 5 min, test compound up to 30 μM
Experimental: A seven-point semi-log dilution of each test compound (up to […]) or positive control inhibitors for CYP2C9 (up to 1000 nM sulphenazole), CYP2D6 (up to 500 nM quinidine) and CYP3A4 (up to 250 nM ketoconazole) were dissolved in DMSO and added to the incubation plate using a Tecan 300 (normalized for 0.3% DMSO content). Final reaction conditions were: human liver microsomes (0.1 mg/mL), potassium phosphate buffer 100 mM pH 7.4, 1 mM magnesium chloride, 5 NM diclofenac, 5 NM dextromethorphan and 2.5 μM midazolam. After a pre-incubation at 37 00. The reaction was started with the addition of NADPH solution at the final concentration of 1 mM and carried out at 37 00 for 5 minutes. The reaction was stopped by the addition of 1 volume of cold acetonitrile with internal standard (labetalol) to the incubation plate. The incubation plate was centrifuged at 3000 rpm for 10 minutes to precipitate proteins, and the supernatant was analyzed by LC-MS/MS. Metabolite area ratio (4-OH-diclofenac, dextrorphan and 1-OH-midazolam) versus ISTD area ratio was used as the quantitative signal. Data were analyzed using the plot log of concentration (×-axis) versus the percentage of inhibition (y axis) and the IC50, Hill Slope and R^2 were determined.

[6] = molecular target: T1, CYP3A4; experiment: TDI method: time-dependent CYP inhibition, IC50 shift -NADPH/+NADPH; assay type: in vitro ADME; details: IC50 (-NADPH) divided by IC50 (+NADPH), 30 min pre-incubation, human liver microsomes
Experimental: Test compound or positive control inhibitors (CYP2C9: Tienilic acid; CYP2D6: paroxetine; CYP3A4: mifepristone) were dissolved in DMSO and a semi-log dilution (up to 50.0 μM) was prepared to 2 incubation plates and normalized for a final DMSO content of 0.5%. Human liver microsomes were diluted at 1 mg/mL with 100 mM potassium phosphate buffer pH 7.4 (1 mM MgCl2) and added to both incubation plates. After pre-incubation at 37° C., the reaction was started with the addition of NADPH (+NADPH condition) or with water (-NADPH condition). Plates were incubated for 30 min and 8 μL were transferred to a second incubation plate containing 72 μL of 1 mM NADPH, 20 μM diclofenac (CYP2C9), 20 μM dextromethorphan (CYP2D6) and 10 μM midazolam (CYP3A4) in 100 mM potassium phosphate buffer pH 7.4 (1 mM MgCl2). Plates were incubated for 10 min and the reaction was stopped by the addition of cold acetonitrile containing internal standard (1:1 v/v). Incubation plates were centrifuged at 3000 rpm for 10 minutes to precipitate protein, and the supernatant was used for LC-MS/MS analysis. Metabolite area ratio (4-OH-diclofenac, dextrorphan and 1-OH-midazolam) versus internal standard area ratio was used as the quantitative signal. Data were analyzed using the plot log of concentration (x axis) versus the percentage of inhibition (y axis) and IC50, Hill Slope and R^2 were determined. The IC50 shift was then calculated by dividing the IC50-NADPH condition by the IC50 obtained in the +NADPH condition.

[7] = read-out: IC50 (nM) [PolQ] 3 nM, average IC50, 3 nM PolQ ATPase enzyme (1-894)

T1 sequence (P08684 whole entry): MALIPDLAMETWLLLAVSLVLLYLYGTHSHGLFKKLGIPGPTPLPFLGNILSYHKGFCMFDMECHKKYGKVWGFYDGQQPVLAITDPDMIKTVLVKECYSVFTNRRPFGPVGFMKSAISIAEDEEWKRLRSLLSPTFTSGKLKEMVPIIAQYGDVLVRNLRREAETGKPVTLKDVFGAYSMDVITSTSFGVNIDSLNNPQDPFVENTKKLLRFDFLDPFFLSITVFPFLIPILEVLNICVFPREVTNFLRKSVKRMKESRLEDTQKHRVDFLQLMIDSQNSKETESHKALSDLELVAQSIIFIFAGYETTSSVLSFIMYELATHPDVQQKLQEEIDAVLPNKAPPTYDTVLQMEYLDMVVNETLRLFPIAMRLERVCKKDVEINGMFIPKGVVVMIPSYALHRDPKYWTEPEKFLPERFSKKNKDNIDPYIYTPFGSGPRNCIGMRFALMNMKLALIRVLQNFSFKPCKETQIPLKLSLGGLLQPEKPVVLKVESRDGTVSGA
Sequence of PolQ ATPase enzyme (1-894) (O75417 1-894): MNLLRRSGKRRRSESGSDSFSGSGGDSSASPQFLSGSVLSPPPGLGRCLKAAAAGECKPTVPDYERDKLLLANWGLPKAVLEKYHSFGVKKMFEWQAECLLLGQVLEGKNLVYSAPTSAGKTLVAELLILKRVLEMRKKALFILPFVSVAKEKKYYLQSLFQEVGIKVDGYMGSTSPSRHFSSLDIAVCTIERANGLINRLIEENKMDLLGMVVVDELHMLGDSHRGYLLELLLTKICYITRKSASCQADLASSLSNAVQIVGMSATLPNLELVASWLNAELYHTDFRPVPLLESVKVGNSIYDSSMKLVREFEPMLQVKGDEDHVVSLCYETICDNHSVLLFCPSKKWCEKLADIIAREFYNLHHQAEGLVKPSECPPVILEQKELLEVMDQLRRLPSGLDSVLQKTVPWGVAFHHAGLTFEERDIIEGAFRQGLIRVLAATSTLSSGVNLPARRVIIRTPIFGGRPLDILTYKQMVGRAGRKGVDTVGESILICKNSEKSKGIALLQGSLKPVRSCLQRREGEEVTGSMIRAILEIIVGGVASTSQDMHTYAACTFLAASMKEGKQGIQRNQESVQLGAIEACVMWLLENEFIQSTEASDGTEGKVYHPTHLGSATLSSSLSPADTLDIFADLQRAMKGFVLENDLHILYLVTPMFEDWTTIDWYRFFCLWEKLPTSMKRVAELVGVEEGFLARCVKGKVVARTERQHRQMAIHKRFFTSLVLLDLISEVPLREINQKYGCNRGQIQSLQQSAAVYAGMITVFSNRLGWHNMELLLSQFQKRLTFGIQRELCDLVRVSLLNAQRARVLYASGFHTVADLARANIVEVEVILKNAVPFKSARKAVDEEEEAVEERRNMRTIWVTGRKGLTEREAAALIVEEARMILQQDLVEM
Sequence of Polθ ATPase enzyme (1-894) (O75417 1-894): as above
Sequence of PXR nuclear receptor (O75469 whole entry): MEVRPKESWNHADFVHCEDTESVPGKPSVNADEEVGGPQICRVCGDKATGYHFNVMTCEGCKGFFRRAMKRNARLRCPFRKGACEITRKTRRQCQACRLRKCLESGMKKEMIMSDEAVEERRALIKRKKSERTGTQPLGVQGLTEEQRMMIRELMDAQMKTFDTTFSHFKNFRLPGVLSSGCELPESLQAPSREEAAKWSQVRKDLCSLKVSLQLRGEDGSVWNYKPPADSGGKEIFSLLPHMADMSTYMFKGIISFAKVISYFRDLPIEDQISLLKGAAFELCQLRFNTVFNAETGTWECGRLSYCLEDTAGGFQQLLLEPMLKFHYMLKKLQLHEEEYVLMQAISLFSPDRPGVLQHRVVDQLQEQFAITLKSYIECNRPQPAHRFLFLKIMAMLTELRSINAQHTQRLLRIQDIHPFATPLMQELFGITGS

Molecule `COc1ccc(F)cc1-c1cn(C)c(=O)cc1C(=O)Nc1nnc(C#Cc2cc(C)[nH]n2)s1` [Compound 17] has an IC50 [1, 7] of 5.4 nM and an IC50 [2] of 3.2 nM.

For `COc1ccccc1-c1cnccc1C(=O)Nc1nnc(OCc2ccc(C#N)cc2)s1`, the microsomal CLint at 1 μM [3] was 234 µL/min/mg, the fold induction at 24 h [4] was 7.9 and the “PXR activation (% Max activity)” value [4] was 36.0%. For the same molecule, the IC50 [5] was 450 nM and the “Time-dependent CYP3A4 inhibition-shift after 30 min with NADPH” value (“Time-dependent CYP3A4 inhibition-shift” below) [6] was 3.6x.

`COc1ccc(C#N)cc1-c1cnccc1C(=O)Nc1nnc(C#CC2CCC2)s1` [Compound 5] gave an IC50 [1, 7] of 2.9 nM and an IC50 [2] of 1.5 nM.

For `COc1ccc(F)cc1-c1cnccc1C(=O)Nc1nnc([C@@H]2C[C@H]2c2ccc(C#N)cc2)s1` [Compound 1, N-(5-((1R,2R)-2-(4-cyanophenyl)cyclopropyl)-1,3,4-thiadiazol-2-yl)-3-(5-fluoro-2-methoxyphenyl)isonicotinamide], the IC50 [1, 7] was 5.8 nM and the IC50 [2] was 1.1 nM.

`COc1ccc(C#N)cc1-c1cnccc1C(=O)Nc1nnc(C#CC2COC2)s1` [Compound 7, 3-(5-cyano-2-methoxyphenyl)-N-(5-(oxetan-3-ylethynyl)-1,3,4-thiadiazol-2-yl)isonicotinamide] gave an IC50 [1, 7] of 12 nM.

For `COc1ccc(C(F)(F)F)cc1-c1cnccc1C(=O)Nc1nnc(C#CC2CC2)s1` [Compound 24], the IC50 [1, 7] was under 1.5 nM and the IC50 [2] was 0.78 nM.

For `COc1ccccc1-c1cnccc1C(=O)Nc1nnc(OCc2ccc(Cl)cc2)s1`, the microsomal CLint at 1 μM [3] was 262 µL/min/mg, the fold induction at 24 h [4] was 8.8 and the “PXR activation (% Max activity)” value [4] was 46.0%. For the same molecule, the IC50 [5] was 1170 nM and the “Time-dependent CYP3A4 inhibition-shift” value [6] was over 6.5x.

In the case of `COc1cnc(Cl)cc1-c1cnccc1C(=O)Nc1nnc([C@@H]2C[C@H]2c2ccc(C#N)cc2)s1` [Compound 26, 2′-chloro-N-(5-((1R,2R)-2-(4-cyanophenyl)cyclopropyl)-1,3,4-thiadiazol-2-yl)-5′-methoxy-[3,4′-bipyridine]-4-carboxamide], the IC50 [1, 7] is reported as 2.6 nM and the IC50 [2] is reported as 0.53 nM.

`COc1ccc(C#N)cc1-c1cn(C)c(=O)cc1C(=O)Nc1nnc(C#CC2CC2)s1` [Compound 20] gave an IC50 [1, 7] of 21 nM.

Work on `COc1ccc(C#N)cc1-c1cnccc1C(=O)Nc1nnc(C#CC2CC2)s1` [Compound 12, 3-(5-cyano-2-methoxyphenyl)-N-(5-(cyclopropylethynyl)-1,3,4-thiadiazol-2-yl)isonicotinamide] yielded an IC50 [1, 7] of 2 nM and an IC50 [2] of 3.5 nM.

`COc1c(F)cccc1-c1cnccc1C(=O)Nc1nnc(C#CC2CC2)s1` [Compound 13] showed an IC50 [1, 7] of 6.9 nM and an IC50 [2] of 4.2 nM.

In the case of `COc1ccc(F)cc1-n1cncc1C(=O)Nc1nnc(C#CC2CC2)s1` [Compound 22], the IC50 [1, 7] is reported as 12 nM.

Molecule `COc1ccc(C#N)cc1-c1cnccc1C(=O)Nc1nnc(C#CC2CC23CC3)s1` (stereo not drawn) [Compound 6, 3-(5-cyano-2-methoxyphenyl)-N-(5-(spiro[2.2]pentan-1-ylethynyl)-1,3,4-thiadiazol-2-yl)isonicotinamide] has an IC50 [1, 7] of 2 nM and an IC50 [2] of 0.63 nM.

In the case of `C=C(C1=CN=CCC1C(=O)Nc1nnc(CCC2CC2)s1)/C(=C\N=C\Cl)OC` (stereo not drawn), the microsomal CLint at 1 μM [3] is reported as under 7.7 µL/min/mg, the fold induction at 24 h [4] is reported as 1.8 and the “PXR activation (% Max activity)” value [4] is reported as 5.0%. The IC50 [5] was over 30000 nM and the “Time-dependent CYP3A4 inhibition-shift” value [6] was 1x.

For `COc1ccc(C#N)cc1-c1cnccc1C(=O)Nc1nnc(C#CC2(N)CC2)s1` [Compound 9], the IC50 [1, 7] was 33 nM.

`COc1ccc(F)cc1-c1cn(C)c(=O)cc1C(=O)Nc1nnc(C#Cc2cnn(C3CCCNC3)c2)s1` (stereo not drawn) [Compound 18] gave an IC50 [1, 7] of 204 nM.

`COc1ccc(C#N)cc1-n1cncc1C(=O)Nc1nnc(C#CC2CC2)s1` [Compound 23] showed an IC50 [1, 7] of 134 nM.

With `COc1cnc(Cl)cc1-c1cnccc1C(=O)Nc1nnc(C#CC2CC2)s1` [Compound 25] the IC50 [1, 7] was 1.5 nM and the IC50 [2] was 1.3 nM.

With `COc1ccccc1-c1cnccc1C(=O)Nc1nnc(C#Cc2ccc(Cl)cc2)s1` [Compound 474] the microsomal CLint at 1 μM [3] was 22.5 µL/min/mg, the fold induction at 24 h [4] was 1.5 and the “PXR activation (% Max activity)” value [4] was 3.0%. For the same molecule, the IC50 [5] was 1940 nM, the IC50 [2] was 7.6 nM and the “Time-dependent CYP3A4 inhibition-shift” value [6] was 1x.

For `COc1ccc(C#N)cc1-c1cnccc1C(=O)Nc1nnc(C2C[C@H]2c2ccc(C#N)cc2)s1` (mixture of isomers) [Compound 2, N-(5-((1R,2R)-2-(4-cyanophenyl)cyclopropyl)-1,3,4-thiadiazol-2-yl)-3-(5-cyano-2-methoxyphenyl)isonicotinamide], the IC50 [1] was 3.3 nM and the IC50 [2] was 2.2 nM.

`COc1ccc(F)cc1-c1cn(C)c(=O)cc1C(=O)Nc1nnc(C#CC2CC2)s1` [Compound 21] gave an IC50 [1, 7] of 12 nM.

`COc1ccc(F)cc1-c1cnccc1C(=O)Nc1nnc([C@@H]2C[C@H]2c2ccn(C)n2)s1` [Compound 3, 3-(5-fluoro-2-methoxyphenyl)-N-(5-((1R,2R)-2-(1-methyl-1H-pyrazol-3-yl)cyclopropyl)-1,3,4-thiadiazol-2-yl)isonicotinamide] showed an IC50 [1, 7] of 23 nM.

For `COc1ccc(F)cc1-c1cnccc1C(=O)Nc1nnc(OCc2ccc(C#N)cc2)s1`, the microsomal CLint at 1 μM [3] was 174 µL/min/mg, the fold induction at 24 h [4] was 3.9 and the “PXR activation (% Max activity)” value [4] was 17%. The IC50 [5] was 234 nM and the “Time-dependent CYP3A4 inhibition-shift” value [6] was 1x.
